Results published in US10323031B2, “Pesticidally active tetracyclic derivatives with sulfur containing substituents” (Syngenta Participations AG, priority 2015, dated 2019).

Legend:
Type in all cases: in vivo
[1] = tested on: Plutella xylostella (Diamond Back Moth); experiment: Plutella xylostella larvae on artificial diet (Example B7); conditions: 120 h, application rate of 200 ppm, L2 larvae, 5 days after infestation, read-out: effect in at least one of the two categories (mortality or growth inhibition)
Protocol: Plutella xylostella (Diamond Back Moth)
(§1) 24-well microtiter plates with artificial diet were treated with aqueous test solutions prepared from 10,000 ppm DMSO stock solutions by pipetting. After drying, the plates were infested with L2 larvae (10 to 15 per well). The samples were assessed for mortality and growth inhibition in comparison to untreated samples 5 days after infestation.

[2] = tested on: Spodoptera littoralis (Egyptian Cotton Leaf Worm); experiment: Spodoptera littoralis on sprayed cotton leaf discs (Example B8); conditions: foliar, 72 h, application rate of 200 ppm, L1 larvae, 3 days after infestation, read-out: control (mortality, anti-feeding effect, growth inhibition)
Protocol: (§2) Spodoptera littoralis (Egyptian Cotton Leaf Worm)
Cotton leaf discs were placed onto agar in 24-well microtiter plates and sprayed with aqueous test solutions prepared from 10,000 ppm DMSO stock solutions. After drying the leaf discs were infested with five L1 larvae. The samples were assessed for mortality, anti-feeding effect, and growth inhibition in comparison to untreated samples 3 days after infestation. Control of Spodoptera littoralis by a test sample is given when at least one of the categories mortality, anti-feedant effect, and growth inhibition is higher than the untreated sample.

[3] = tested on: Diabrotica Balteata (Corn root worm); experiment: Diabrotica balteata larvae on maize sprouts (Example B2); conditions: 96 h, application rate of 200 ppm, L2 larvae, 4 days after infestation, read-out: effect in at least one of the two categories (mortality or growth inhibition)
Protocol: Diabrotica Balteata (Corn root worm)
as §1, with “Maize sprouts placed onto an agar layer in 24-well” for “24-well”, “plates” for “plates with artificial diet”, “spraying.” for “pipetting.”, “(6” for “(10”, “10” for “15”, “4” for “5”

[4] = tested on: Euschistus heros (Neotropical Brown Stink Bug); experiment: Euschistus heros nymphs on soybean leaves (Example B3); conditions: 120 h, application rate of 200 ppm, N2 nymphs, 5 days after infestation, read-out: effect in at least one of the two categories (mortality or growth inhibition)
Protocol: Euschistus heros (Neotropical Brown Stink Bug)
Soybean leaves on agar in 24-well microtiter plates were sprayed with aqueous test solutions prepared from 10,000 ppm DMSO stock solutions. After drying the leaves were infested with N2 nymphs. The samples were assessed for mortality and growth inhibition in comparison to untreated samples 5 days after infestation.

[5] = tested on: Myzus persicae (Green Peach Aphid); experiment: Myzus persicae feeding/contact activity (Example B5); conditions: foliar, 144 h, application rate of 200 ppm, sunflower leaf discs, aphid population of mixed ages, 6 days after infestation
Protocol: Myzus persicae (Green Peach Aphid): Feeding/Contact Activity
Sunflower leaf discs were placed onto agar in a 24-well microtiter plate and sprayed with aqueous test solutions prepared from 10,000 ppm DMSO stock solutions. After drying, the leaf discs were infested with an aphid population of mixed ages. The samples were assessed for mortality 6 days after infestation.

[6] = tested on: Tetranychus urticae (Two-spotted Spider Mite); experiment: Tetranychus urticae feeding/contact activity (Example B10); conditions: foliar, 192 h
Protocol: Tetranychus urticae (Two-spotted Spider Mite): Feeding/Contact Activity
Bean leaf discs on agar in 24-well microtiter plates were sprayed with aqueous test solutions prepared from 10,000 ppm DMSO stock solutions. After drying the leaf discs were infested with a mite population of mixed ages. The samples were assessed for mortality on mixed population (mobile stages) 8 days after infestation.

[7] = tested on: Frankliniella occidentalis (Western Flower Thrips); experiment: Frankliniella occidentalis feeding/contact activity (Example B4); conditions: foliar, 168 h, application rate of 200 ppm, sunflower leaf discs, population of mixed ages, 7 days after infestation
Protocol: Frankliniella occidentalis (Western Flower Thrips): Feeding/Contact Activity
Sunflower leaf discs were placed on agar in 24-well microtiter plates and sprayed with aqueous test solutions prepared from 10,000 DMSO stock solutions. After drying the leaf discs were infested with a Frankliniella population of mixed ages. The samples were assessed for mortality 7 days after infestation.

[8] = tested on: Spodoptera littoralis (Egyptian Cotton Leaf Worm); experiment: Spodoptera littoralis, uptake by lettuce roots from agar (Example B9); conditions: 144 h, test rate of 12.5 ppm, lettuce grown on treated agar, eggs, 6 days after infestation, read-out: effect in at least one of the three categories (mortality, anti-feeding, or growth inhibition)
Description: as §2
Test compounds were applied by pipette from 10,000 ppm DMSO stock solutions into 24-well plates and mixed with agar. Lettuce seeds were placed onto the agar and the multi well plate was closed by another plate which contained also agar. After 7 days the compound was absorbed by the roots and the lettuce grew into the lid plate. The lettuce leaves were then cut off into the lid plate. Spodoptera eggs were pipetted through a plastic stencil onto a humid gel blotting paper and the lid plate was closed with it. The samples were assessed for mortality, anti-feedant effect and growth inhibition in comparison to untreated samples 6 days after infestation.

[9] = tested on: Myzus persicae (Green Peach Aphid); experiment: Myzus persicae systemic activity (Example B6); conditions: 144 h, test rate of 24 ppm, roots of pea seedlings in test solution, 6 days
Protocol: Myzus persicae (Green Peach Aphid): Systemic Activity
Roots of pea seedlings infested with an aphid population of mixed ages were placed directly into aqueous test solutions prepared from 10,000 DMSO stock solutions. The samples were assessed for mortality 6 days after placing seedlings into test solutions.

[10] = tested on: Bemisia Tabaci (Cotton White Fly); experiment: Bemisia tabaci feeding/contact activity (Example B1); conditions: foliar, 144 h, application rate of 200 ppm, cotton leaf discs, adult white flies, 6 days after incubation
Protocol: Bemisia Tabaci (Cotton White Fly): Feeding/Contact Activity
Cotton leaf discs were placed on agar in 24-well microtiter plates and sprayed with aqueous test solutions prepared from 10,000 ppm DMSO stock solutions. After drying the leaf discs were infested with adult white flies. The samples were checked for mortality 6 days after incubation.

CCSc1cc2ccccc2cc1-c1nc2cc(C(F)(F)F)n(CC)c(=O)c2n1C [Compound A1, 5-ethyl-2-(3-ethylsulfanyl-2-naphthyl)-3-methyl-6-(trifluoromethyl)-3aH-imidazo[4,5-c]pyrid in-4-one]
≥ 80%: percent effect (mortality or growth inhibition) at 200 ppm [1] | mortality at 200 ppm [2] | percent effect (mortality or growth inhibition) at 200 ppm [3] | percent effect (mortality or growth inhibition) at 200 ppm [4]

CCn1c(C(F)(F)F)cc2nc(-c3cc4ccccc4cc3S(=O)(=O)CC)n(C)c2c1=O [Compound A2, 5-ethyl-2-(3-ethylsulfonyl-2-naphthyl)-3-methyl-6-(trifluoromethyl)-6H-im idazo[4,5-c]pyridin-4-one]
≥ 80%: mortality at 200 ppm [5] | percent effect (mortality or growth inhibition) at 200 ppm [1] | mortality at 200 ppm [6] | mortality at 200 ppm [7] | mortality at 200 ppm [2] | percent effect (mortality, anti-feeding or growth inhibition) at 12.5 ppm [8] | percent effect (mortality or growth inhibition) at 200 ppm [3] | percent effect (mortality or growth inhibition) at 200 ppm [4]

CCSc1cc2ccccc2nc1-c1nc2cc(C(F)(F)F)n(CC)c(=O)c2n1C [Compound A3, 5-ethyl-2-(3-ethylsulfanyl-2-quinolyl)-3-methyl-6-(trifluoromethyl)-3aH-imidazo[4,5-c]pyridin-4-one]
≥ 80%: mortality at 200 ppm [5] | percent effect (mortality or growth inhibition) at 200 ppm [1] | mortality at 200 ppm [2] | percent effect (mortality or growth inhibition) at 200 ppm [3]

CCSc1cc2c(cc1-c1nc3cc(C(F)(F)F)n(CC)c(=O)c3n1C)nc(C(F)(F)F)n2C [Compound A5, 5-ethyl-2-[6-ethylsulfanyl-1-methyl-2-(trifluoromethyl)benzimidazol-5-yl]-3-methyl-6-(trifluoromethyl)imidazo[4,5-c]pyridin-4-one]
≥ 80%: mortality at 200 ppm [2] | percent effect (mortality or growth inhibition) at 200 ppm [4]

CCn1c(C(F)(F)F)cc2nc(-c3cc4nc(C(F)(F)F)n(C)c4cc3S(=O)(=O)CC)n(C)c2c1=O [Compound A6, 5-ethyl-2-[6-ethylsulfonyl-1-methyl-2-(trifluoromethyl)benzimidazol-5-yl]-3-methyl-6-(trifluoromethyl)imidazo[4,5-c]pyridin-4-one]
≥ 80%: mortality at 24 ppm [9] | mortality at 200 ppm [5] | percent effect (mortality or growth inhibition) at 200 ppm [1] | mortality at 200 ppm [7] | mortality at 200 ppm [2] | percent effect (mortality, anti-feeding or growth inhibition) at 12.5 ppm [8] | mortality at 200 ppm [10] | percent effect (mortality or growth inhibition) at 200 ppm [4]

CCn1c(C(F)(F)F)cc2nc(-c3cc4ccncc4cc3S(=O)(=O)CC)n(C)c2c1=O [Compound A8, 5-ethyl-2-(7-ethylsulfonyl-6-isoquinolyl)-3-methyl-6-(trifluoromethyl)imidazo[4,5-c]pyridin-4-one]
≥ 80%: percent effect (mortality or growth inhibition) at 200 ppm [1] | mortality at 200 ppm [2] | percent effect (mortality or growth inhibition) at 200 ppm [3] | percent effect (mortality or growth inhibition) at 200 ppm [4]

CCn1c(C(F)(F)F)cc2nc(-c3cc4cc[n+]([O-])cc4cc3S(=O)(=O)CC)n(C)c2c1=O [Compound A9, 5-ethyl-2-(7-ethylsulfonyl-2-oxido-isoquinolin-2-ium-6-yl)-3-methyl-6-(trifluoromethyl)imidazo[4,5-c]pyridin-4-one]
≥ 80%: mortality at 24 ppm [9] | percent effect (mortality or growth inhibition) at 200 ppm [1] | mortality at 200 ppm [2]
